From patent US20240150375A1, “MACROCYCLIC COMPOUNDS AND USES THEREOF” (Theseus Pharmaceuticals, Inc., priority 2021, published 2024)

Key:
EGFR^L858R/T790M/C797S = EGFR^L858R/T790M/C797S (Homo sapiens, UniProt P00533, C797S/L858R/T790M); assay: HTRF KinEASE-TK in vitro kinase assay, EGFR L858R/T790M/C797S (LTC); format: biochemical; settings: EGFR L858R/T790M/C797S kinase inhibition
From the text: (§1) The biological activity of compounds described herein can be studied according to standard methods known in the art. Methods can be used to study inhibition of EGFR, including mutant forms of EGFR comprising L858R, T790M, C797S, and/or Del19 mutations, or any combination thereof (e.g., L858R single, double, or triple mutants). Exemplary, non-limiting methods are described herein.
(§2) Assays using an in vitro kinase assay kit (HTRF KinEASE-TK kit) can be used to study the inhibitory activity of compounds described herein with respect to EGFR mutants such as ECFR^L858R, EGFR^L858R/T790M, and EGFR^L858R/T790M/C797S.
(§3) One hundred thirty six compounds were studied using the kinase (EGFR) and BA/F3 assays described herein, with more than 60% of the tested compounds providing IC50<50 nM values in all six assays. Accordingly, compounds of the invention are a new general class of kinase inhibitors, including potent inhibitors of EGFR mutants.
(§4) Exemplary kinase inhibition (Kinase) and anti-proliferation activity (Ba/F3) data are shown in Table 1 for certain compounds of the invention and are categorized according to the below legend.

EGFR^L858R/T790M = EGFR^L858R/T790M (Homo sapiens, UniProt P00533, L858R/T790M); assay: HTRF KinEASE-TK in vitro kinase assay, EGFR L858R/T790M (LT); format: biochemical; settings: EGFR L858R/T790M kinase inhibition
From the text: as §1, §2, §3, §4

EGFR^L858R = EGFR^L858R (Homo sapiens, UniProt P00533, L858R); assay: HTRF KinEASE-TK in vitro kinase assay, EGFR L858R (L); format: biochemical; settings: EGFR L858R kinase inhibition
From the text: as §1, §2, §3, §4

[1] = target: Ba/F3 EGFR-Del19/T790M/C797S (Homo sapiens, UniProt P00533, T790M/C797S, cells depend on it, form not given); assay: Ba/F3 viability assay (CellTiter-Glo), EGFR-Del19/T790M/C797S (DTC); format: cell-based; settings: Ba/F3 EGFR-Del19/T790M/C797S anti-proliferation; read-out: BAF3 DTC IC50
Ba/F3 EGFR-Del19/T790M/C797S, sequence (P00533 with tags, fused parts or gaps DEL746-750/T790M/C797S, form open): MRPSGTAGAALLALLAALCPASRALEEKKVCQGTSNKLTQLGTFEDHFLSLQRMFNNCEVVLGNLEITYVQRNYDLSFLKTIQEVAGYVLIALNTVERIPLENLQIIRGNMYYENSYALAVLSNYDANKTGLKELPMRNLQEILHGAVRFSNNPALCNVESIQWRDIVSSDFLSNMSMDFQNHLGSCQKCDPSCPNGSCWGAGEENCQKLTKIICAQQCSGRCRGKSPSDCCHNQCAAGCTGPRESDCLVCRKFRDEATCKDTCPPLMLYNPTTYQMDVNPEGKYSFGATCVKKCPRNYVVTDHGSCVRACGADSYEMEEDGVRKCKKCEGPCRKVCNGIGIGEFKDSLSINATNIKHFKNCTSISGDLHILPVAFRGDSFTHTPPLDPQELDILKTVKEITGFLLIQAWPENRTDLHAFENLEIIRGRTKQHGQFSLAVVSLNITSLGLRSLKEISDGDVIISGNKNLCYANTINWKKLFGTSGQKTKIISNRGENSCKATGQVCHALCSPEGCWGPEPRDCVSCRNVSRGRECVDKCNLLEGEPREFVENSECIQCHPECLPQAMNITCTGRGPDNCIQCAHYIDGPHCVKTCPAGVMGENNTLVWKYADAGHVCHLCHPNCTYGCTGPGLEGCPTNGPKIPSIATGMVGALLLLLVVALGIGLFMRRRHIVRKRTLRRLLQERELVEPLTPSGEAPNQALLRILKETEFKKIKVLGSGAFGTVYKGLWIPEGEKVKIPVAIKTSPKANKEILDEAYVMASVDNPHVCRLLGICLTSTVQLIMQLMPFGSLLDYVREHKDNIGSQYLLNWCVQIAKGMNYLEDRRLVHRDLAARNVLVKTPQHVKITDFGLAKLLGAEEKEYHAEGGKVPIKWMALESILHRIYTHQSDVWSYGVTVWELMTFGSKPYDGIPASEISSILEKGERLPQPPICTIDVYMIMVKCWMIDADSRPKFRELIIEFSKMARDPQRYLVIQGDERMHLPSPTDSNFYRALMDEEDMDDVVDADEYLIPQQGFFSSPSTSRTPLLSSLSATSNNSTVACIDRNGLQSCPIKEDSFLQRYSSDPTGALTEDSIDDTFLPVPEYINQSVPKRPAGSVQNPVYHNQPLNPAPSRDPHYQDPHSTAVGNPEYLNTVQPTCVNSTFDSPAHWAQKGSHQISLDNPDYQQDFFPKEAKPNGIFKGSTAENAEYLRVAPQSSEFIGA
From the text: (§5) Inhibition of cell proliferation can be studied using Ba/F3 viability assays, including the Promega CellTiter-Glo cell viability assay. This assay can be used to study the effect of compounds described herein in the following assays: (1) Ba/F3 Parental; (2) Ba/F3 EGFR-Del19/T790M; (3); Ba/F3 EGFR-Del19/C797S; and (4) Ba/F3 EGFR-Del119/T790M/C797S.
as §3, §4

Ba/F3 EGFR-Del19/T790M = Ba/F3 EGFR-Del19/T790M (Homo sapiens, UniProt P00533, T790M, cells depend on it, form not given); assay: Ba/F3 viability assay (CellTiter-Glo), EGFR-Del19/T790M (DT); format: cell-based; settings: Ba/F3 EGFR-Del19/T790M anti-proliferation; read-out: BAF3 DT IC50
Ba/F3 EGFR-Del19/T790M, sequence (P00533 with tags, fused parts or gaps DEL746-750/T790M, form open): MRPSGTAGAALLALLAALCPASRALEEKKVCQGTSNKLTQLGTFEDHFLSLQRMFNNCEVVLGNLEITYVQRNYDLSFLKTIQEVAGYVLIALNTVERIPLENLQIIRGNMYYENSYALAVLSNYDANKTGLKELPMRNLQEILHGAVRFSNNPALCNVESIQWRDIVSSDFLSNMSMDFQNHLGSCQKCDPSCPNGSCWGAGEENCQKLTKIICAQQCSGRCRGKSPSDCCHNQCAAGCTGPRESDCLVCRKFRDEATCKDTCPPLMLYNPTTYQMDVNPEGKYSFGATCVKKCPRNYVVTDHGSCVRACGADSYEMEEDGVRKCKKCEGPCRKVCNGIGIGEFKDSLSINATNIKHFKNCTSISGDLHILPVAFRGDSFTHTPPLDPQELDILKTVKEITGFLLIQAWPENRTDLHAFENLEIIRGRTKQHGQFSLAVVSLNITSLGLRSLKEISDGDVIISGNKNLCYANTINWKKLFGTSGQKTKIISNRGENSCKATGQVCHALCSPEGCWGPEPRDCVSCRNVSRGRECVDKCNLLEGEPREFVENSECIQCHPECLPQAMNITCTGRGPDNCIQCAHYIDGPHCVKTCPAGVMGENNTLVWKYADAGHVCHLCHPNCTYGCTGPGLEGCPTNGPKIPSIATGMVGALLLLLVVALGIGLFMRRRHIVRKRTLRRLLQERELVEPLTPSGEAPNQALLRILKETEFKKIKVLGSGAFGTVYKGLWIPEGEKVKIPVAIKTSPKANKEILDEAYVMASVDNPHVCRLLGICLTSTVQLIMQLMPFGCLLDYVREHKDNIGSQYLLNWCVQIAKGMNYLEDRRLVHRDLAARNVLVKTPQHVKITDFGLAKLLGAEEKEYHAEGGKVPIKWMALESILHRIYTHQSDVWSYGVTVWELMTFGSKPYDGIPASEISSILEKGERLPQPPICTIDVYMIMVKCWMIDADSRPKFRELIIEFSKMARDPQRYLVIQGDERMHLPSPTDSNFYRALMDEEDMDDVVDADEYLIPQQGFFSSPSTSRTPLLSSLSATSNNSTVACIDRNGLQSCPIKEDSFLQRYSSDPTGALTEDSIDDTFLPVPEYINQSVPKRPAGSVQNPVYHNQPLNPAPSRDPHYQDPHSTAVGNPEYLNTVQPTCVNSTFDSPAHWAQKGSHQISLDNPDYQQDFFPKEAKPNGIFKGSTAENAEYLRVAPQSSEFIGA
From the text: as §5, §3, §4

Ba/F3 EGFR-Del19/C797S = Ba/F3 EGFR-Del19/C797S (Homo sapiens, UniProt P00533, C797S, cells depend on it, form not given); assay: Ba/F3 viability assay (CellTiter-Glo), EGFR-Del19/C797S (DC); format: cell-based; settings: Ba/F3 EGFR-Del19/C797S anti-proliferation; read-out: BAF3 DC IC50
Ba/F3 EGFR-Del19/C797S, sequence (P00533 with tags, fused parts or gaps DEL746-750/C797S, form open): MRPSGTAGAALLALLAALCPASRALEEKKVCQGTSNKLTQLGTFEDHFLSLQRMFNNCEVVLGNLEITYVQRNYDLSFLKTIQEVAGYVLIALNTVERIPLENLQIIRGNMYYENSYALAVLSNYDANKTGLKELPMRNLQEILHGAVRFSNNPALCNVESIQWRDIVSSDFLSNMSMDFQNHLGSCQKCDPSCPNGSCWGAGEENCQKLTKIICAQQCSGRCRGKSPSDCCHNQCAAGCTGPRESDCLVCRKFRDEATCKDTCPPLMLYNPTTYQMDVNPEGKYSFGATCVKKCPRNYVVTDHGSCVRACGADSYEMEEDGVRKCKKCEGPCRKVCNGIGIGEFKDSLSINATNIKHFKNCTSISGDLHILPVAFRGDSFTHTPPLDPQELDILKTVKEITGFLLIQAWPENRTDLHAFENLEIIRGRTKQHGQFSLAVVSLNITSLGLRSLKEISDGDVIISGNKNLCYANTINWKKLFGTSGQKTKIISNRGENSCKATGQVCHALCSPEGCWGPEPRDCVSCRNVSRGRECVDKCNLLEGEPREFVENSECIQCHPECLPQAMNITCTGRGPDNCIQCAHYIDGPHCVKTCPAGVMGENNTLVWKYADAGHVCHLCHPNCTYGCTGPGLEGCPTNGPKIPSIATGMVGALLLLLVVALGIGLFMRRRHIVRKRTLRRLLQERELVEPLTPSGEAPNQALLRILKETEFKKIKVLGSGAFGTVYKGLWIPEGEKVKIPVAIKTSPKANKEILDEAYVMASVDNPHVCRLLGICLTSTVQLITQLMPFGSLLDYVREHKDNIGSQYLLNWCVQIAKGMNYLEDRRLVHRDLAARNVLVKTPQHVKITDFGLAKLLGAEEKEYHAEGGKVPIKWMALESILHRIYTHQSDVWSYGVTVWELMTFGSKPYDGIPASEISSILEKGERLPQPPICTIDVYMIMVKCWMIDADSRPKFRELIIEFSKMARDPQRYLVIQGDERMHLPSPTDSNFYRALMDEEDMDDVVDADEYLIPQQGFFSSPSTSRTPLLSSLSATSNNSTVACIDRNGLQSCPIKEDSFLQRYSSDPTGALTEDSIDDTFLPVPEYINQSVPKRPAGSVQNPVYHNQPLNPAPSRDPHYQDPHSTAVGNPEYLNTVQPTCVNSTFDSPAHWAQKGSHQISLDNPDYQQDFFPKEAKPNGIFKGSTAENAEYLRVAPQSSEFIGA
From the text: as §5, §3, §4

EGFR^L858R/T790M/C797S, sequence (P00533 25-1210 T790M/C797S/L858R): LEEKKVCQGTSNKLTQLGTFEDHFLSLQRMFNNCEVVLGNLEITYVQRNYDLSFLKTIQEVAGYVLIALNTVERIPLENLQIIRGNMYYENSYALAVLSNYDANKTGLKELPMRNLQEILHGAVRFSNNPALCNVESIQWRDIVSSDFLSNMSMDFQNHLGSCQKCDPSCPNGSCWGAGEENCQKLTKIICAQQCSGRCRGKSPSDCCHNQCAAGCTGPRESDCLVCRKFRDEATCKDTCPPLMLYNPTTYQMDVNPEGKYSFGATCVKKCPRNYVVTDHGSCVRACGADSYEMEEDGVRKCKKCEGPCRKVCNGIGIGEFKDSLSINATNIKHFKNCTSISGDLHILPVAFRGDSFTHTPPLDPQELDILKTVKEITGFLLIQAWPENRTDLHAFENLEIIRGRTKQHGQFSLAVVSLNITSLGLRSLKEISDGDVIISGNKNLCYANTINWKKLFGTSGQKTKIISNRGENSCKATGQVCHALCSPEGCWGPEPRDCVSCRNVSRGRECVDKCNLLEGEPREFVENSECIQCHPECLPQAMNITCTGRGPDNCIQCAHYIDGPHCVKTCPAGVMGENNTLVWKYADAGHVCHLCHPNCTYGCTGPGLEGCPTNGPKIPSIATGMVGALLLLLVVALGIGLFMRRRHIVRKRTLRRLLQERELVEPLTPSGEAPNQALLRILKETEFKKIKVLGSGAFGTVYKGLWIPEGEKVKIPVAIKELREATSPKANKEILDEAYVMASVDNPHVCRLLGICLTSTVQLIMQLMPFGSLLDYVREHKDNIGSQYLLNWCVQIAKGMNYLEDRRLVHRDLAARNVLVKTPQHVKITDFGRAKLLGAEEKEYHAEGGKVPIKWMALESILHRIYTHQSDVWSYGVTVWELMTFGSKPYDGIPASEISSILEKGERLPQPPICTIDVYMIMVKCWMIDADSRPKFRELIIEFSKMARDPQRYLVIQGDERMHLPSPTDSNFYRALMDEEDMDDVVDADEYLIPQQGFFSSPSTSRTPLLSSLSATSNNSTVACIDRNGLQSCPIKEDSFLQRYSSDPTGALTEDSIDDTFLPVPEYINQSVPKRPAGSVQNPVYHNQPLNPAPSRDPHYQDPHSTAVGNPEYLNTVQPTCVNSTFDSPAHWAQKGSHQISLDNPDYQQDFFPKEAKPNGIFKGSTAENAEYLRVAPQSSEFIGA

| Structure (SMILES) | IC50 (EGFR^L858R/T790M/C797S) | IC50 (EGFR^L858R/T790M) | IC50 (EGFR^L858R) | GI50 [1] | GI50 (Ba/F3 EGFR-Del19/T790M) | GI50 (Ba/F3 EGFR-Del19/C797S) |
| --- | --- | --- | --- | --- | --- | --- |
| CCOc1nn(C2CCN(C)CC2F)cc1-c1cnc2cc1O[C@@H](C)CCOc1c(cnn1C)-c1nccc(n1)N2 (stereo partly drawn) [(16)] | < 50 nM | < 50 nM | < 50 nM | < 50 nM | < 50 nM | < 50 nM |
| CCOc1nn(C2CC2CN2CCOCC2)cc1-c1cnc2cc1O[C@@H](C)CCOc1c(cnn1C)-c1nccc(n1)N2 (stereo partly drawn) [(20)] | < 50 nM | < 50 nM | < 50 nM | < 50 nM | < 50 nM | < 50 nM |
| CCOc1nn(CC(F)F)cc1-c1cnc2cc1O[C@@H](C)CCOc1c(cnn1C)-c1nccc(n1)N2 [(29)] | < 50 nM | < 50 nM | < 50 nM | < 50 nM | < 50 nM | < 50 nM |
| CCOc1nn(C2CC3CCC(C2)O3)cc1-c1cnc2cc1O[C@@H](C)CCOc1c(cnn1C)-c1nccc(n1)N2 (stereo partly drawn) [(30)] | < 50 nM | < 50 nM | < 50 nM | < 50 nM | < 50 nM | < 50 nM |
| C[C@H]1CCOc2c(cnn2C)-c2nccc(n2)Nc2cc(c(-c3cn(C4CC4)nc3OCC(F)(F)F)cn2)O1 [(32)] | < 50 nM | < 50 nM | < 50 nM | < 50 nM | < 50 nM | < 50 nM |
| CCOc1nn(C2CC(C)(C)OC(C)(C)C2)cc1-c1cnc2cc1O[C@@H](C)CCOc1c(cnn1C)-c1nccc(n1)N2 [(33)] | < 50 nM | < 50 nM | < 50 nM | < 50 nM | 50 to 100 nM | 50 to 100 nM |
| CCOc1nn(-c2ccncc2)cc1-c1cnc2cc1O[C@@H](C)CCOc1c(cnn1C)-c1nccc(n1)N2 [(34)] | < 50 nM | < 50 nM | < 50 nM | < 50 nM | 50 to 100 nM | < 50 nM |
| CCOc1ncc(C)cc1-c1cnc2cc1O[C@@H](C)CCOc1c(cnn1C)-c1nccc(n1)N2 [(35)] | 100 to 1000 nM | < 50 nM | ≥ 1000 nM | 100 to 1000 nM | 100 to 1000 nM | ≥ 1000 nM |
| C[C@H]1CCOc2c(cnn2C)-c2nccc(n2)Nc2cc(c(-c3cn(C4CN(C5COC5)C4)nc3OCCF)cn2)O1 [(36)] | < 50 nM | < 50 nM | < 50 nM | < 50 nM | < 50 nM | < 50 nM |
| CCOc1nn(C2CCN(C3COC3)CC2)cc1-c1cnc2cc1O[C@@H](C)CCOc1c(cnn1C)-c1nccc(n1)N2 [(40)] | < 50 nM | < 50 nM | < 50 nM | < 50 nM | < 50 nM | < 50 nM |
| CCCOc1nn(C2CC2)cc1-c1cnc2cc1O[C@@H](C)CCOc1c(cnn1C)-c1nccc(n1)N2 [(42)] | < 50 nM | < 50 nM | < 50 nM | < 50 nM | < 50 nM | < 50 nM |
| C[C@H]1CCOc2c(cnn2C)-c2nccc(n2)Nc2cc(c(-c3cn(C4CC4)nc3OCCF)cn2)O1 [(43)] | < 50 nM | < 50 nM | < 50 nM | < 50 nM | < 50 nM | < 50 nM |
| C[C@H]1CCOc2c(cnn2C)-c2nccc(n2)Nc2cc(c(-c3cn(CCN4CCCC4)nc3OCC(F)(F)F)cn2)O1 [(56)] | < 50 nM | < 50 nM | < 50 nM | < 50 nM | < 50 nM | < 50 nM |
| CCOC(=O)CN1CCC(n2cc(-c3cnc4cc3O[C@@H](C)CCOc3c(cnn3C)-c3nccc(n3)N4)c(OCC)n2)CC1 [(62)] | < 50 nM | < 50 nM | < 50 nM | < 50 nM | < 50 nM | < 50 nM |
| C[C@H]1CCOc2c(cnn2C)-c2nccc(n2)Nc2cc(c(Nc3ccn(C)n3)cn2)O1 [(70)] | < 50 nM | < 50 nM | < 50 nM | < 50 nM | < 50 nM | < 50 nM |
| C[C@H]1CCOc2c(cnn2C)-c2nccc(n2)Nc2cc(c(-c3cc4ccccc4n3C)cn2)O1 [(74)] | 100 to 1000 nM | 100 to 1000 nM | ≥ 1000 nM | 100 to 1000 nM | 100 to 1000 nM | ≥ 1000 nM |
| Cc1c(-c2cnc3cc2O[C@@H](C)CCOc2c(cnn2C)-c2nccc(n2)N3)cnn1C1CCN(CCCF)CC1 [(84)] | < 50 nM | < 50 nM | < 50 nM | < 50 nM | < 50 nM | < 50 nM |
| C[C@H]1CCOc2c(cnn2C)-c2nccc(n2)Nc2cc(c(-c3ncc(CN4CCN(C)CC4)s3)cn2)O1 [(92)] | < 50 nM | < 50 nM | < 50 nM | < 50 nM | < 50 nM | < 50 nM |
| C[C@H]1CCOc2c(cnn2C)-c2nccc(n2)Nc2cc(c(-c3ccc(CN4CCN(C)CC4)n3C)cn2)O1 [(103)] | < 50 nM | < 50 nM | 100 to 1000 nM | 100 to 1000 nM | 100 to 1000 nM | 100 to 1000 nM |
| C[C@H]1CCOc2c(cnn2C)-c2nccc(n2)Nc2cc(c(-c3ccc(CN4CCOCC4)cc3)cn2)O1 [(124)] | < 50 nM | < 50 nM | < 50 nM | < 50 nM | < 50 nM | < 50 nM |

Now from value to compound, other results behind:

| IC50 (EGFR^L858R/T790M/C797S) | IC50 (EGFR^L858R/T790M) | IC50 (EGFR^L858R) | Structure (SMILES) | GI50 [1] | GI50 (Ba/F3 EGFR-Del19/T790M) | GI50 (Ba/F3 EGFR-Del19/C797S) |
| --- | --- | --- | --- | --- | --- | --- |
| < 50 nM | < 50 nM | < 50 nM | CC(C)n1cc(-c2cnc3cc2O[C@@H](C)CCOc2c(cnn2C)-c2nccc(n2)N3)c(OCC(F)F)n1 [(15)] | < 50 nM | < 50 nM | < 50 nM |
| < 50 nM | < 50 nM | < 50 nM | CCOc1nn(C2CC2)cc1-c1cnc2cc1O[C@@H](C)CCOc1c(cnn1C)-c1nccc(n1)N2 [(18)] | < 50 nM | < 50 nM | < 50 nM |
| < 50 nM | < 50 nM | < 50 nM | CCOc1nn(C2CC3CCC(C2)N3C)cc1-c1cnc2cc1O[C@@H](C)CCOc1c(cnn1C)-c1nccc(n1)N2 (stereo partly drawn) [(37)] | < 50 nM | < 50 nM | < 50 nM |
| < 50 nM | < 50 nM | < 50 nM | C[C@H]1CCOc2c(cnn2C)-c2nccc(n2)Nc2cc(c(-c3cn(C)cc3OCC(F)(F)F)cn2)O1 [(48), (10S)-5,10-dimethyl-13-[1-methyl-4-(2,2,2-trifluoroethoxy)pyrrol-3-yl]-7,11-dioxa-4,5,15,17,21,22-hexazatetracyclo[16.3.1.1^12,16.0^2,6]tricosa-1(22),2(6),3,12(23),13,15,18,20-octaene] | < 50 nM | < 50 nM | < 50 nM |
| < 50 nM | < 50 nM | 50 to 100 nM | C[C@H]1CCOc2c(cnn2C)-c2nccc(n2)Nc2cc(c(-c3ccc4c(ccn4C)c3)cn2)O1 [(75)] | < 50 nM | 50 to 100 nM | 100 to 1000 nM |
| < 50 nM | < 50 nM | < 50 nM | C[C@H]1CCOc2c(cnn2C)-c2nccc(n2)Nc2cc(c(-c3cnc(N4CCN(C)CC4)n3C)cn2)O1 [(77)] | < 50 nM | 50 to 100 nM | 100 to 1000 nM |
| < 50 nM | < 50 nM | < 50 nM | Cc1nn(C2CCN(CCF)CC2)cc1-c1cnc2cc1O[C@@H](C)CCOc1c(cnn1C)-c1nccc(n1)N2 [(85)] | < 50 nM | < 50 nM | < 50 nM |
| 100 to 1000 nM | < 50 nM | ≥ 1000 nM | C[C@H]1CCOc2c(cnn2C)-c2nccc(n2)Nc2cc(c(-c3ccnn3CCN3CCOCC3)cn2)O1 [(89)] | ≥ 1000 nM | ≥ 1000 nM | ≥ 1000 nM |
| < 50 nM | < 50 nM | < 50 nM | C[C@H]1CCOc2c(cnn2C)-c2nccc(n2)Nc2cc(c(-c3ncc(CN4CCOCC4)s3)cn2)O1 [(115)] | < 50 nM | < 50 nM | < 50 nM |
| < 50 nM | < 50 nM | < 50 nM | C[C@H]1CCOc2c(cnn2C)-c2nccc(n2)Nc2cc(c(-c3cnn(CCCN(C)C)c3)cn2)O1 [(123)] | < 50 nM | < 50 nM | < 50 nM |
